Patent US5998426A, “9,10 disubstituted camptothecin derivatives with antitumor activity” (Pharmacia & Upjohn S.p.A., priority 1996, dated 1999)

These molecules were tested on L1210 cells (murine lymphocytic leukemia) (assay: Cytotoxic activity in vitro on L1210 cells (50% inhibition of cellular growth) after 48 h continuous treatment). Conditions: Mus musculus, total cells counted with Coulter Counter, DMSO final concentration 0.5%, read-out: IC50 (concentration inhibiting 50% of cell growth).
Assay type: cell-based
Protocol: The IC50 was determined for each compound of formula (Ia), (Ib) and (Ic) from dose-response curves counting the total number of cells with a Coulter Counter (Kontron mod. ZM).
The tested compounds were dissolved in dimethylsulfoxide (DMSO) at a final concentration of 0.5%.

First: CC[C@@]1(O)C(=O)OCc2c1cc1n(c2=O)Cc2cc3c(N)c(OS(=O)(=O)c4cccc5ccccc45)ccc3nc2-1 [Formula (Ia), 9-amino-10-(1-naphthylsulfonyloxy)-20(S)-camptothecin]
Second: CC[C@@]1(O)C(=O)OCc2c1cc1n(c2=O)Cc2cc3c(N)c(OS(=O)(=O)c4ccccc4)ccc3nc2-1 [Formula (Ib), 9-amino-10-phenylsulfonyloxy-20(S)-camptothecin]
The IC50 of the first is 3.1-fold lower: 2.2 ± 0.3 ng/mL for the first, 6.8 ± 0.4 ng/mL for the second.

`CCc1c2c(nc3ccc(OS(=O)(=O)c4ccc(C)cc4)c(N)c13)-c1cc3c(c(=O)n1C2)COC(=O)[C@]3(O)CC` [Formula (Ic), 7-ethyl-9-amino-10-(p-toluenesulfonyloxy)-20(S)-camptothecin] was tested, and the IC50 was 4.6 ± 0.1 ng/mL.
